In one assay the test system is Kasumi-1 cells. Kind of assay: Kasumi-1 cellular viability assay (ATP-Lite, 72 h). In kind it is cell-based. As to conditions: Homo sapiens, ATP-Lite luminescence, % viability relative to DMSO. Put shortly: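 Viability was read by ATP-Lite One Step luminescence after 72 h compound treatment at 37 °C/5% CO2, normalised to DMSO control, with IC50 fitted from concentration-response. Cells were Kasumi-1 (AML FAB M2) at 15000 per well in RPMI-1640/10% FBS, 0.1% DMSO final.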

The subject of the next assay is Caov-3 cells. Description: Caov-3 cellular viability assay (ATP-Lite, 72 h). Type of assay: cell-based. Particulars: Homo sapiens, ATP-Lite luminescence, % viability relative to DMSO. Put shortly:
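IC50 values come from concentration-response fits of luminescent ATP content (ATP-Lite One Step), normalised as % viability versus DMSO. Compound exposure was 72 h at 37 °C in RPMI-1640/10% FBS with 0.1% final DMSO. Wells held 10000 cells each.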

For assay [1], the target named is T1, recombinant METTL3/METTL14 complex (Homo sapiens, UniProt Q86U44).
T1 construct: purchased Active Motif 311970; host or cells: Sf9 cells
Kind of assay: METTL3/14 Scintillation Proximity Assay (SPA), RNA methyltransferase activity. As to conditions: 5.31 nM METTL3/14 complex, 250 nM RNA substrate, 1 μM 3H-SAM, 90 min; for compounds marked * best of the two separated forms. In kind it is biochemical. (SPA uses beads or plates that emit light when radiolabelled molecules are held near them.)

Results on 19 compounds are retold here after patent US20250002475A1 (EPICS THERAPEUTICS, priority 2023, published 2025).

In general, pIC50 refers to −log10 of the IC50, conventionally taken in molar units.

pIC50: −log10 of the molar value. Where only a bound is given, the exact number is not on record here.

T1 sequence (Q86U44 whole entry): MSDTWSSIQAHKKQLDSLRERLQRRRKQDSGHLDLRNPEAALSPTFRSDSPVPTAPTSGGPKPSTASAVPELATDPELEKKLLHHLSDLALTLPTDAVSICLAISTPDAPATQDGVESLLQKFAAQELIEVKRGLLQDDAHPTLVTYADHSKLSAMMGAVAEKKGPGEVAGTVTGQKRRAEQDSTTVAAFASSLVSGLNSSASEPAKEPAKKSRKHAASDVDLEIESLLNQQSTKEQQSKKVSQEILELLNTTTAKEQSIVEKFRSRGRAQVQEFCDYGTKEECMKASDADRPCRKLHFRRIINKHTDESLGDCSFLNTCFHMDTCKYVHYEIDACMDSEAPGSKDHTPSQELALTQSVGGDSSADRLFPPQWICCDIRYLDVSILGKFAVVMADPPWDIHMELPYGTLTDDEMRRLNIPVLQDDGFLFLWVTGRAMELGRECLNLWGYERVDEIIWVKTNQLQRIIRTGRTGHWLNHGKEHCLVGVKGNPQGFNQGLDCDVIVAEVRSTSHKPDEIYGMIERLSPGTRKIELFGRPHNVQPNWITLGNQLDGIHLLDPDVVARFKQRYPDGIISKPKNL
T1 sequence (Q9HCE5 whole entry partner): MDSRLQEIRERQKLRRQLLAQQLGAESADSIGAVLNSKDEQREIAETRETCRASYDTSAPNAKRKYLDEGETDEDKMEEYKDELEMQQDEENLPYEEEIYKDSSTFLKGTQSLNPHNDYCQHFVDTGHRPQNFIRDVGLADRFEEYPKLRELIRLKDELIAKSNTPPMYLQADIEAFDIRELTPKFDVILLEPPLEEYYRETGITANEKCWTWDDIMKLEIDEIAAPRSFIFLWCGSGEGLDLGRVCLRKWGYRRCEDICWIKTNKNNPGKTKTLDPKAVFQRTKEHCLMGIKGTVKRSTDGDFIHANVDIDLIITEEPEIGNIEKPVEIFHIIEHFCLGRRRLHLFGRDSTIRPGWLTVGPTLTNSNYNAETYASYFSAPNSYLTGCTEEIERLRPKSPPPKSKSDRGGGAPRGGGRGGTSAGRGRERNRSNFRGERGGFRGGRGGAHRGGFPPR

`CC(n1cc(-c2cncc(N(C)C)c2)nn1)n1ccc(N2CCC[C@@H](NCC3CC3)C2)cc1=O` (single isomer, unassigned) [Compound 142]: the pIC50 in the assay with Kasumi-1 cells is at least 6.30; in the assay on Caov-3 cells, at least 6.30; in assay [1], at least 7.30.
For the compound `COc1cc(-c2cn(Cc3ccc(N4CCC[C@@H](NCC5CC5)C4)nn3)nn2)c2cn[nH]c2c1` [Compound 015, (R)-N-(cyclopropylmethyl)-1-(6-((4-(6-methoxy-1H-indazol-4-yl)-1H-1,2,3-triazol-1-yl)methyl)pyridazin-3-yl)piperidin-3-amine], the values for the pIC50 (with Kasumi-1 cells; with Caov-3 cells; in assay [1]) were 5.30 to 6.30, at least 6.30 and at least 7.30, respectively.
For `Clc1cc(-c2cn(Cc3ccc(N4CCC[C@@H](NCC5CCC5)C4)nn3)nn2)c2cn[nH]c2c1` [Compound 057, (R)-1-(6-((4-(6-chloro-1H-indazol-4-yl)-1H-1,2,3-triazol-1-yl)methyl)pyridazin-3-yl)-N-(cyclobutylmethyl)piperidin-3-amine], the pIC50 in the assay on Kasumi-1 cells was 5.30 to 6.30; with Caov-3 cells, 5.30 to 6.30; in assay [1], at least 7.30.
As to `c1cc(C2(c3nnc(-c4cncc(N5CCCC5)n4)s3)COC2)ncc1N1CCC[C@@H](NCC2CC2)C1` [Compound 369, (R)-N-(cyclopropylmethyl)-1-(6-(3-(5-(6-(pyrrolidin-1-yl)pyrazin-2-yl)-1,3,4-thiadiazol-2-yl)oxetan-3-yl)pyridin-3-yl)piperidin-3-amine], the pIC50 in the assay on Kasumi-1 cells was at least 6.30; in the assay on Caov-3 cells, at least 6.30; in assay [1], at least 7.30.
Consider `CC(n1cc(-c2cncc(N3CCC(F)(F)C3)n2)nn1)n1ccc(N2CCC[C@@H](NCC3CC3)C2)cc1=O` (single isomer, unassigned) [Compound 227], for which the figures for the pIC50 (in the assay on Kasumi-1 cells; in the assay on Caov-3 cells; in assay [1]) were at least 6.30, at least 6.30 and at least 7.30, respectively.
`COc1cncc(-c2cn(C(C)(C)c3ccc(N4CCC[C@@H](NCC5CCC5)C4)nn3)nn2)c1` [Compound 082, (R)-N-(cyclobutylmethyl)-1-(6-(2-(4-(5-methoxypyridin-3-yl)-1H-1,2,3-triazol-1-yl)propan-2-yl)pyridazin-3-yl)piperidin-3-amine]: the pIC50 with Kasumi-1 cells was 5.30 to 6.30; in the assay with Caov-3 cells, 5.30 to 6.30; in assay [1], at least 7.30.
On to `CC(c1ncc(N2CCC[C@@H](NCC3CCC3)C2)cc1F)n1cc(-c2cncc(N3CCCC3)n2)nn1` (single isomer, unassigned) [Compound 303], for which the pIC50 in the assay with Kasumi-1 cells was at least 6.30; in the assay on Caov-3 cells it was at least 6.30; in assay [1], at least 7.30.
Regarding `c1cc(N2CCC[C@@H](NCC3CCC3)C2)ccc1Cn1cc(-c2cncc(N3CC4CC4C3)n2)nn1` (stereo partly drawn) [Compound 288, (3R)-1-(4-((4-(6-(3-azabicyclo[3.1.0]hexan-3-yl)pyrazin-2-yl)-1H-1,2,3-triazol-1-yl)methyl)phenyl)-N-(cyclobutylmethyl)piperidin-3-amine], the pIC50 in the assay with Kasumi-1 cells was at least 6.30; in the assay with Caov-3 cells it was at least 6.30; in assay [1], at least 7.30.
For the compound `COc1cncc(-c2cn(Cc3ccc(N4CCC[C@@H](NCC5CCC5)C4)cn3)nn2)c1` [Compound 087, (R)-N-(cyclobutylmethyl)-1-(6-((4-(5-methoxypyridin-3-yl)-1H-1,2,3-triazol-1-yl)methyl)pyridin-3-yl)piperidin-3-amine], the pIC50 in the assay on Kasumi-1 cells is 5.30 to 6.30; in the assay on Caov-3 cells, 5.30 to 6.30; in assay [1], at least 7.30.
With `FC12CC(CN[C@@H]3CCCN(c4ccc(C5(n6cc(-c7cncc(N8CCCC8)n7)nn6)COC5)nc4)C3)(C1)C2` [Compound 308, (R)-N-((3-fluorobicyclo[1.1.1]pentan-1-yl)methyl)-1-(6-(3-(4-(6-(pyrrolidin-1-yl)pyrazin-2-yl)-1H-1,2,3-triazol-1-yl)oxetan-3-yl)pyridin-3-yl)piperdin-3-amine], the pIC50 with Kasumi-1 cells is at least 6.30; in the assay with Caov-3 cells it was at least 6.30; in assay [1], at least 7.30.
`CC(n1cc(-c2cncc(OCC(F)(F)F)c2)nn1)n1ccc(N2CCC[C@@H](NCC3CCC3)C2)cc1=O` (single isomer, unassigned) [Compound 200]: the pIC50 was 5.30 to 6.30 with Kasumi-1 cells, 5.30 to 6.30 in the assay with Caov-3 cells and at least 7.30 in assay [1].
With `CC(c1ccc(N2CCC[C@@H](NCC3CC3)C2)nn1)n1cnc(-c2cncc(C3CC3)c2)c1` (single isomer, unassigned) [Compound 342], the pIC50 in the assay with Kasumi-1 cells is at least 6.30; with Caov-3 cells, at least 6.30; in assay [1], at least 7.30.
Consider `c1ncc(C2CCCC2)cc1-c1cn(C2(c3ccc(N4CCC[C@@H](NCC5CC5)C4)cn3)COC2)nn1` [Compound 313, (R)-1-(6-(3-(4-(5-cyclopentylpyridin-3-yl)-1H-1,2,3-triazol-1-yl)oxetan-3-yl)pyridin-3-yl)-N-(cyclopropylmethyl)piperidin-3-amine], for which the pIC50 in the assay with Kasumi-1 cells was at least 6.30; in the assay on Caov-3 cells, at least 6.30; in assay [1], at least 7.30.
For the compound `CC#Cc1cncc(-c2cn(C3(c4ccc(N5CCC[C@@H](NCC6CC6)C5)cn4)COC3)nn2)c1` [Compound 345, (R)-N-(cyclopropylmethyl)-1-(6-(3-(4-(5-(prop-1-vn-1-yl)pyridin-3-yl)-1H-1,2,3-triazol-1-yl)oxetan-3-yl)pyridin-3-yl)piperidin-3-amine], the pIC50 in the assay on Kasumi-1 cells is at least 6.30; in the assay with Caov-3 cells it was at least 6.30; in assay [1], at least 7.30.
For the compound `O=C(Nc1cc(=O)n2ccccc2n1)C1(c2ccc(N3CCC[C@@H](NCC4CCC4)C3)cn2)COC1` [Compound 239, (R)-3-(5-(3-((cyclobutylmethyl)amino)piperidin-1-yl)pyridin-2-yl)-N-(4-oxo-4H-pyrido[1,2-a]pyrimidin-2-yl)oxetane-3-carboxamide], the pIC50 is at least 6.30 in the assay with Kasumi-1 cells, at least 6.30 in the assay on Caov-3 cells and at least 7.30 in assay [1].
With `CC(n1cc(-c2cncc(N(C)C)n2)nn1)n1ccc(N2CCC[C@@H](NCC3CCC3)C2)cc1=O` (stereo partly drawn) [Compound 164, 4-((R)-3-((cyclobutylmethyl)amino)piperidin-1-yl)-1-(1-(4-(6-(dimethylamino)pyrazin-2-yl)-1H-1,2,3-triazol-1-yl)ethyl)pyridin-2(1H)-one], the pIC50 was at least 6.30 in the assay on Kasumi-1 cells, at least 6.30 with Caov-3 cells and at least 7.30 in assay [1].
For `CC(n1cc(-c2cncc(N3CCC3)c2)nn1)n1ccc(N2CCC[C@@H](NCC3CCC3)C2)cc1=O` (single isomer, unassigned) [Compound 161], the pIC50 with Kasumi-1 cells is at least 6.30; with Caov-3 cells it was at least 6.30; in assay [1], at least 7.30.
In the case of `FC(F)(F)C1(CN[C@@H]2CCCN(c3ccc(C4(n5cc(-c6cncc(C7CC7)c6)nn5)COC4)nc3)C2)CCC1` [Compound 339, (R)-1-(6-(3-(4-(5-cyclopropylpyridin-3-yl)-1H-1,2,3-triazol-1-yl)oxetan-3-yl)pyridin-3-yl)-N-((1-(trifluoromethyl)cyclobutyl)methyl)piperidin-3-amine], the results for the pIC50 (with Kasumi-1 cells; in the assay on Caov-3 cells; in assay [1]) were 5.30 to 6.30, at least 6.30 and at least 7.30, respectively.
The matching figures for `COc1cncc(-c2nnc(Cn3ccc(N4CCC[C@@H](NCC5CCC5)C4)cc3=O)s2)c1` [Compound 077, (R)-4-(3-((cyclobutylmethyl)amino)piperidin-1-yl)-1-((5-(5-methoxypyridin-3-yl)-1,3,4-thiadiazol-2-yl)methyl)pyridin-2(1H)-one]: 5.30 to 6.30, 5.30 to 6.30 and at least 7.30.
